Source: article PMC12396409, “Screening and hit evaluation of a microbial metabolite library against the pathogenic Plasmodium falciparum and Toxoplasma gondii parasites” (International Journal for Parasitology: Drugs and Drug …, 2025)
Where two headings read alike, the source gives them in different places.

How the values were obtained:
[1] = test system: P. falciparum 3D7 parasites; assay: P. falciparum growth inhibition assay, 1-cycle (72 h treatment), SYBR DNA staining (library screen at 2 μg/mL and dose-response); type: cell-based, Plasmodium falciparum
[2] = test system: P. falciparum 3D7 parasites; assay: P. falciparum growth inhibition assay, 2-cycle (120 h treatment), delayed-death screen and dose-response; type: cell-based, Plasmodium falciparum; conditions: for activity at 2 µg/mL: Plasmodium falciparum
[3] = test system: T. gondii RH strain (RH-Tub-eYFP) tachyzoites; assay: microbe, parasite or virus in culture; type: cell-based, Toxoplasma gondii; conditions: 72 h; for percent parasite growth at 2 µg/mL: Toxoplasma gondii
[4] = P. falciparum, 72 h, screen at 2 μg/mL, replicate 1
[5] = P. falciparum, 72 h, screen at 2 μg/mL, replicate 2
[6] = P. falciparum, 120 h, screen at 2 μg/mL, replicate 1
[7] = P. falciparum, 120 h, screen at 2 μg/mL, replicate 2
[8] = T. gondii, screen at 2 μg/mL, replicate 1
[9] = T. gondii, screen at 2 μg/mL, replicate 2
[10] = P. falciparum 3D7, 72 h, parasite screen at 2 μg/mL, % growth, replicate 1
[11] = P. falciparum 3D7, 72 h, parasite screen at 2 μg/mL, % growth, replicate 2
[12] = P. falciparum 3D7, 120 h, parasite screen at 2 μg/mL, % growth, replicate 1
[13] = P. falciparum 3D7, 120 h, parasite screen at 2 μg/mL, % growth, replicate 2
[14] = T. gondii, parasite screen at 2 μg/mL, % growth, replicate 1
[15] = T. gondii, parasite screen at 2 μg/mL, % growth, replicate 2

OCC1=C[C@@H](N[C@H]2C[C@H](CO)[C@@H](O[C@H]3O[C@@H](CO)[C@H](O)[C@@H](O)[C@@H]3O)[C@H](O)[C@H]2O)[C@H](O)[C@@H](O)[C@@H]1O [Validamycin A]
Pf_72h_%Growth_Rep1 [1, 4]: 75.67%
Pf_72h_%Growth_Rep2 [1, 5]: 70.52%
Pf_120h_%Growth_Rep1 [2, 6]: 167.49%
Pf_120h_%Growth_Rep2 [2, 7]: 74.14%
Tg_72h_%Growth_Rep1 [3, 8]: 87.00%
Tg_72h_%Growth_Rep2 [3, 9]: 98.14%

CCC(C)C1OC2(CCC1C)CC1CC(CC=C(C)C(OC3CC(OC)C(OC4CC(OC)C(O)C(C)O4)C(C)O3)C(C)C=CC=C3COC4C(O)C(C)C=C(C(=O)O1)C34O)O2 (stereo not shown) [BIA-I1581]
Pf_72h_%Growth_Rep1 ([1]; P. falciparum 3D7, 72 h, library screen at 2 μg/mL, % growth, replicate 1): 5.59%
Pf_72h_%Growth_Rep2 ([1]; P. falciparum 3D7, 72 h, library screen at 2 μg/mL, % growth, replicate 2): 2.07%
Pf_120h_%Growth_Rep1 ([2]; P. falciparum 3D7, 120 h, library screen at 2 μg/mL, % growth, replicate 1): 16.87%
Pf_120h_%Growth_Rep2 ([2]; P. falciparum 3D7, 120 h, library screen at 2 μg/mL, % growth, replicate 2): 11.19%
Tg_72h_%Growth_Rep1 ([3]; T. gondii RH, library screen at 2 μg/mL, % growth, replicate 1): 33.19%
Tg_72h_%Growth_Rep2 ([3]; T. gondii RH, library screen at 2 μg/mL, % growth, replicate 2): 43.03%

CC[C@H]1NC(=O)[C@@H](NC(=O)c2ncccc2O)[C@@H](C)OC(=O)[C@H](c2ccccc2)NC(=O)[C@@H]2CC(=O)CCN2C(=O)[C@H](Cc2ccccc2)N(C)C(=O)[C@@H]2CCCN2C1=O [Virginiamycin S1]
Pf_72h_%Growth_Rep1 [1, 4]: 88.54%
Pf_72h_%Growth_Rep2 [1, 5]: 126.74%
Pf_120h_%Growth_Rep1 [2, 6]: 110.70%
Pf_120h_%Growth_Rep2 [2, 7]: 75.61%
Tg_72h_%Growth_Rep1 [3, 8]: 137.70%
Tg_72h_%Growth_Rep2 [3, 9]: 85.91%

CC[C@H]1CCC[C@H](O[C@H]2CC[C@H](N(C)C)[C@@H](C)O2)[C@@H](C)C(=O)C2=C[C@@H]3[C@@H](C=C[C@@H]4C[C@@H](O[C@@H]5O[C@@H](C)[C@H](OC)[C@@H](OC)[C@H]5OC)C[C@@H]34)[C@@H]2CC(=O)O1 [Spinosyn A]
activity at 2 µg/mL ([1]; Plasmodium falciparum, 3D7, 72 h, P. falciparum, 72 h, parasite screen 2 μg/mL, % growth, replicate 1, read-out: Pf_72h_%Growth_Rep1): 5.81%
activity at 2 µg/mL ([1]; Plasmodium falciparum, 3D7, 72 h, P. falciparum, 72 h, parasite screen 2 μg/mL, % growth, replicate 2, read-out: Pf_72h_%Growth_Rep2): 3.23%
IC50 ([1]; Plasmodium falciparum, 3D7, 72 h treatment, mean ± S.D., n ≥ 3, read-out: IC50 (μM), P. falciparum): > 1 µM
activity at 2 µg/mL ([2]; 3D7, 120 h, P. falciparum, 120 h, parasite screen 2 μg/mL, % growth, replicate 1, read-out: Pf_120h_%Growth_Rep1): 0.89%
activity at 2 µg/mL ([2]; 3D7, 120 h, P. falciparum, 120 h, parasite screen 2 μg/mL, % growth, replicate 2, read-out: Pf_120h_%Growth_Rep2): -4.31%
percent parasite growth at 2 µg/mL ([3]; T. gondii, parasite screen 2 μg/mL, % growth, replicate 1, read-out: Tg_72h_%Growth_Rep1): 56.8%
percent parasite growth at 2 µg/mL ([3]; T. gondii, parasite screen 2 μg/mL, % growth, replicate 2, read-out: Tg_72h_%Growth_Rep2): 95.1%

CN1C(=O)c2ccccc2NC(=O)/C1=C/c1ccccc1 [Dehydrocyclopeptine]
Pf_72h_%Growth_Rep1 [1, 4]: 83.17%
Pf_72h_%Growth_Rep2 [1, 5]: 27.60%
Pf_120h_%Growth_Rep1 [2, 6]: 82.86%
Pf_120h_%Growth_Rep2 [2, 7]: 97.23%
Tg_72h_%Growth_Rep1 [3, 8]: 109.69%
Tg_72h_%Growth_Rep2 [3, 9]: 83.37%

Cc1cccc(O)c1C(=O)O [BIA-M1655]
Pf_72h_%Growth_Rep1 [1, 10]: 90.28%
Pf_72h_%Growth_Rep2 [1, 11]: 64.98%
Pf_120h_%Growth_Rep1 [2, 12]: 96.92%
Pf_120h_%Growth_Rep2 [2, 13]: 97.37%
Tg_72h_%Growth_Rep1 [3, 14]: 91.77%
Tg_72h_%Growth_Rep2 [3, 15]: 83.98%

C/C=C(\C)c1cc(O)c(C)c2c1Oc1cc(O)cc(C)c1C(=O)O2 [Unguinol]
Pf_72h_%Growth_Rep1 [1, 4]: 95.05%
Pf_72h_%Growth_Rep2 [1, 5]: 130.12%
Pf_120h_%Growth_Rep1 [2, 6]: 111.35%
Pf_120h_%Growth_Rep2 [2, 7]: 108.43%
Tg_72h_%Growth_Rep1 [3, 8]: 147.94%
Tg_72h_%Growth_Rep2 [3, 9]: 82.86%

CC1(C)CC[C@]2(C(=O)O)CC[C@]3(C)C(=CC[C@@H]4[C@@]5(C)C[C@@H](O)[C@H](O)[C@@](C)(CO)[C@@H]5CC[C@]43C)[C@@H]2C1 [Arjunolic acid]
activity at 2 µg/mL ([1]; Plasmodium falciparum, 3D7, library screen at 2 μg/mL, 72 h, % growth, replicate 1, read-out: Pf_72h_%Growth_Rep1): 75.9%
activity at 2 µg/mL ([1]; Plasmodium falciparum, 3D7, library screen at 2 μg/mL, 72 h, % growth, replicate 2, read-out: Pf_72h_%Growth_Rep2): 83%
activity at 2 µg/mL ([2]; 3D7, library screen at 2 μg/mL, 120 h, % growth, replicate 1, read-out: Pf_120h_%Growth_Rep1): 72.4%
activity at 2 µg/mL ([2]; 3D7, library screen at 2 μg/mL, 120 h, % growth, replicate 2, read-out: Pf_120h_%Growth_Rep2): 76.3%
percent parasite growth at 2 µg/mL ([3]; library screen at 2 μg/mL, % growth, replicate 1, read-out: Tg_72h_%Growth_Rep1): 85.6%
percent parasite growth at 2 µg/mL ([3]; library screen at 2 μg/mL, % growth, replicate 2, read-out: Tg_72h_%Growth_Rep2): 73.6%

CC(=O)OC1CCC(C)C2C1C=C(C)C1C(C)=CCCC(C)=CC3(C)C=C(C)C(C)CC34OC(=O)C(=C(O)C12C)C4=O (stereo not shown) [Tetromycin A]
Pf_72h_%Growth_Rep1 [1, 4]: 87.03%
Pf_72h_%Growth_Rep2 [1, 5]: 84.23%
Pf_120h_%Growth_Rep1 [2, 6]: 96.09%
Pf_120h_%Growth_Rep2 [2, 7]: 91.15%
Tg_72h_%Growth_Rep1 [3, 8]: 141.34%
Tg_72h_%Growth_Rep2 [3, 9]: 89.51%

C[C@H]1CCC/C=C/[C@@H]2C[C@H](O)C[C@H]2[C@H](O)/C=C/C(=O)O1 [Brefeldin A]
activity at 2 µg/mL ([1]; Plasmodium falciparum, 3D7, 72 h, P. falciparum, 72 h, screen at 2 μg/mL, replicate 1, read-out: Pf_72h_%Growth_Rep1): 4.33%
activity at 2 µg/mL ([1]; Plasmodium falciparum, 3D7, 72 h, P. falciparum, 72 h, screen at 2 μg/mL, replicate 2, read-out: Pf_72h_%Growth_Rep2): -0.69%
activity at 2 µg/mL ([2]; 3D7, 120 h, P. falciparum, 120 h, screen at 2 μg/mL, replicate 1, read-out: Pf_120h_%Growth_Rep1): 5.53%
activity at 2 µg/mL ([2]; 3D7, 120 h, P. falciparum, 120 h, screen at 2 μg/mL, replicate 2, read-out: Pf_120h_%Growth_Rep2): 2.87%
percent parasite growth at 2 µg/mL ([3]; T. gondii, screen at 2 μg/mL, replicate 1, read-out: Tg_72h_%Growth_Rep1): -1.55%
percent parasite growth at 2 µg/mL ([3]; T. gondii, screen at 2 μg/mL, replicate 2, read-out: Tg_72h_%Growth_Rep2): 0.61%

CC(=O)OC[C@@H](NC(=O)C(Cl)Cl)[C@H](O)c1ccc([N+](=O)[O-])cc1 [Chloramphenicol acetate]
Pf_72h_%Growth_Rep1 [1, 4]: 90.71%
Pf_72h_%Growth_Rep2 [1, 5]: 92.14%
Pf_120h_%Growth_Rep1 [2, 6]: 100.35%
Pf_120h_%Growth_Rep2 [2, 7]: 90.22%
Tg_72h_%Growth_Rep1 [3, 8]: 132.16%
Tg_72h_%Growth_Rep2 [3, 9]: 92.80%

CCO[C@@H]1[C@@H](OC)[C@H](C)O[C@@H](O[C@H]2C[C@H]3[C@@H]4C=C5C(=O)[C@H](C)[C@@H](O)CCC[C@H](CC)OC(=O)C[C@H]5[C@@H]4C=C(C)[C@@H]3C2)[C@@H]1OC [spinosyn L 17-pseudoaglycone, 3'-Ethoxy-]
Pf_72h_%Growth_Rep1 ([1]; P. falciparum, 72 h, parasite screen 2 μg/mL, % growth, replicate 1): 17.82%
Pf_72h_%Growth_Rep2 ([1]; P. falciparum, 72 h, parasite screen 2 μg/mL, % growth, replicate 2): 8.15%
Pf_120h_%Growth_Rep1 ([2]; P. falciparum, 120 h, parasite screen 2 μg/mL, % growth, replicate 1): 6.02%
Pf_120h_%Growth_Rep2 ([2]; P. falciparum, 120 h, parasite screen 2 μg/mL, % growth, replicate 2): 1.27%
Tg_72h_%Growth_Rep1 ([3]; T. gondii, parasite screen 2 μg/mL, % growth, replicate 1): 97.87%
Tg_72h_%Growth_Rep2 ([3]; T. gondii, parasite screen 2 μg/mL, % growth, replicate 2): 88.47%

Dihydrocyclosporin A
Pf_72h_%Growth_Rep1 ([1]; library screen at 2 μg/mL, 72 h, % growth, replicate 1): 1.22%
Pf_72h_%Growth_Rep2 ([1]; library screen at 2 μg/mL, 72 h, % growth, replicate 2): -3.30%
Pf_120h_%Growth_Rep1 ([2]; library screen at 2 μg/mL, 120 h, % growth, replicate 1): 3.25%
Pf_120h_%Growth_Rep2 ([2]; library screen at 2 μg/mL, 120 h, % growth, replicate 2): 2.98%
Tg_72h_%Growth_Rep1 ([3]; library screen at 2 μg/mL, % growth, replicate 1): 8.15%
Tg_72h_%Growth_Rep2 ([3]; library screen at 2 μg/mL, % growth, replicate 2): 8.03%

COc1c(-c2ccccc2)c2ccccc2[nH]c1=O [BIA-M1149]
Pf_72h_%Growth_Rep1 [1, 10]: 89.32%
Pf_72h_%Growth_Rep2 [1, 11]: 119.11%
Pf_120h_%Growth_Rep1 [2, 12]: 106.21%
Pf_120h_%Growth_Rep2 [2, 13]: 123.66%
Tg_72h_%Growth_Rep1 [3, 14]: 136.04%
Tg_72h_%Growth_Rep2 [3, 15]: 92.92%
